In patent US7647217B2, “Structure of the farnesoid X receptor ligand binding domain and methods of use therefor” (The Salk Institute for Biological Studies, priority 2002, dated 2010):
Where “and” joins values, the source holds several entries; their conditions need not be identical. Equal values may be shown once.

How the values were obtained:
FXR = biological target: T1, FXR (Mus musculus, UniProt Q60641); assay: Cell-based screen: full-length FXR expression vector co-transfected with hormone response element luciferase reporter; conditions: FXR agonist activity
T1 construct: expression vector containing the full-length FXR receptor; expressed in transfected cells
T1 sequence (Q60641 1-488): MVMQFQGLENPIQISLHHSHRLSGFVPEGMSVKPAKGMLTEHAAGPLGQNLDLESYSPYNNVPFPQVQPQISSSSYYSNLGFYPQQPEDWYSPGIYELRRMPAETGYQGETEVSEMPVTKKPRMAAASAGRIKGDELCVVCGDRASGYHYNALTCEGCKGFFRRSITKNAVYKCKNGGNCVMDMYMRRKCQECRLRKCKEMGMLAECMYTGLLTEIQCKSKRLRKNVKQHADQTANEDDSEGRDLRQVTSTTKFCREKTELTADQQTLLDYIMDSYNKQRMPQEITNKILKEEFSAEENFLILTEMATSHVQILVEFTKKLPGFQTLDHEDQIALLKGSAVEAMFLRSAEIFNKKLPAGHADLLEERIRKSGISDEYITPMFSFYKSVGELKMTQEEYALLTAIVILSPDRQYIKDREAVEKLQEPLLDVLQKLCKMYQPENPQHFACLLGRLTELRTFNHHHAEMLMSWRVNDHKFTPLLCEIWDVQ
T1 sequence (P19793 1-462 partner): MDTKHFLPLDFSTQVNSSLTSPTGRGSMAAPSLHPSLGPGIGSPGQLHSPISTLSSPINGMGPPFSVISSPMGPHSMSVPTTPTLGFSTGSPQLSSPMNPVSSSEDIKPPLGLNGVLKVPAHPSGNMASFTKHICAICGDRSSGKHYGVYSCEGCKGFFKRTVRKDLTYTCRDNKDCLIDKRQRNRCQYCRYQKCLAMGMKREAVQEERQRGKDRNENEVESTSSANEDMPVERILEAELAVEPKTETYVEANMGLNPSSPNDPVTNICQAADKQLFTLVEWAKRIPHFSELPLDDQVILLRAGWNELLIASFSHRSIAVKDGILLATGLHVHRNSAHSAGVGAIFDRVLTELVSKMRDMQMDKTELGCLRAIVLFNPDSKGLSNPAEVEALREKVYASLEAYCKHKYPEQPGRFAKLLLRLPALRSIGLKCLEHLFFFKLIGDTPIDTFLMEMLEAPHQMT
Method: For transfection of these constructs, monkey CV-1 HEPG2 and HEK293T cells were grown in DMEM supplemented with 10% FBS, 50 U/ml penicillin G, and 50 μg/ml streptomycin sulfate at 37° C. in 7% CO2. CV-1 cells (60%-70% confluence, 48-well plate) were cotransfected with 16.6 ng of the appropriate expression vector, 100 ng of reporter plasmid, and 100 ng of pCMX-LacZ in 200 μl of DMEM containing 10% FBS by the N-[1-(2,3-dioleoyloxy)propyl]-N,N,N-trimethylammonium methylsulfate (DOTAP)-mediated procedure. After 24 hr, the medium was replaced, and cells were harvested and assayed for luciferase activity 36-48 hr after transfection. The luciferase activity was normalized to the level of β-galactosidase activity. Each transfection was performed in triplicate and repeated at least three times.
To discover novel small molecule ligands for FXR, a constructed combinatorial library of approximately 10 000 benzopyran compounds was screened using a cell-based assay in a 384 well format (Nicolaou et al. (2000). Natural product-like combinatorial libraries based on privileged structures. 1. General principles and solid-phase synthesis of benzopyrans. J. Am. Chem. Soc. 122, 9939-9953; Natural product-like combinatorial libraries based on privileged structures. 2. Construction of a 10000-membered benzopyran library by directed split-and-pool chemistry using nanokans and optical encoding. J. Am. Chem. Soc. 122, 9954-9967; and Natural product-like combinatorial libraries based on privileged structures. 3. The “libraries from libraries” principle for diversity enhancement of benzopyran libraries. J. Am. Chem. Soc. 122, 9968-9976). This cell-based screen was based on the co-transfection of an expression vector containing the full-length FXR receptor with a reporter vector. The reporter vector contains a hormone response element under a minimal eukaryotic promoter driving a luciferase reporter gene. […] Lead compounds were re-tested and checked for cross-reactivity for the retinoid X receptor (RXR), the heterodimeric partner of FXR. None of the identified compounds had the ability to bind or activate RXR.
Systematic optimization of regions I and II of the prototypical structure through multiple rounds of screening using smaller “focused” chemical libraries defined the requisite features of these domains for high affinity binding to FXR. […] This intelligence gathering was then used to design and synthesize on a solid support a focused library of 94 new compounds for further optimization.

[1] = biological target: T2, FXR ligand-binding domain (Homo sapiens, UniProt Q96RI1); assay: FRET-based coactivator (SRC-1 peptide) binding assay; assay type: biochemical; conditions: for EC50: agonist mode, 8 nM GST-FXR LBD, 16 nM SRC-1 peptide, read-out: EC50 of SRC-1 peptide recruitment
T2 construct: made in house; host or cells: E. coli BL21 (DE3)
T2 sequence (Q96RI1 258-486): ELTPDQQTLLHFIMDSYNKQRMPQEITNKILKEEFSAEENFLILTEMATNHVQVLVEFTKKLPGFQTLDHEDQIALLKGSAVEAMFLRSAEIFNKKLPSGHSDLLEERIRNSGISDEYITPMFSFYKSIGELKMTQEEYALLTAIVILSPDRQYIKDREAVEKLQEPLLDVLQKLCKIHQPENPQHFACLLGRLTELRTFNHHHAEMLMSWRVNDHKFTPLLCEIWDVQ
Method: Increasing amounts of the compounds were added as indicated. Binding reactions contained 8 nM Europium labeled GST-FXR ligand-binding domain fusion protein and 16 nM allophycocyanin-labeled SRC-1 receptor binding peptide. Results are expressed at 1000*(665 nm/615 nm).
Standard PCR amplifications of the LBD of human FXR (residues 248 to 476) and sub-cloning techniques were used to generate pGEX Glutathione-s-transferase (GST) and pHIS8-3 (Jez et al. (2000) Dissection of malonyl-coenzyme A decarboxylation from polyketide formation in the reaction mechanism of a plant polyketide synthase. Biochemistry 39, 890-902) prokaryote protein expression vectors. DNA fragments containing hFXR aa248 to 476 were cloned into the BamHI site of pGEX-hFXR, while the cloning sites NcoI and BamHI sites were used in pHIS8-3.
To determine if the compounds identified as ligands could promote the association of FXR with co-activators in vitro, a fluorescence resonance energy transfer (FRET)-based coactivator binding assay was employed (see, for example, Makishima et al. (1999), supra; Urizar et al. (2002). A natural product that lowers cholesterol as an antagonist ligand for FXR. Science. 296(5573), 1703-6). This assay relies on an agonist-induced interaction between the nuclear receptor and its coactivator bringing two fluorogenic partners together resulting in the nuclear receptor ligand-dependent FRET.

SMILES	EC50 (FXR)	recruitment of SRC-1 peptide [1]	EC50 [1] [nM]
CC(C)c1onc(-c2c(Cl)cccc2Cl)c1COc1ccc(/C=C/c2cccc(C(=O)O)c2)c(Cl)c1 [GW4064, reference compound]	~90 nM and 80 nM	–	–
COC(=O)/C=C/c1cccc(N(Cc2ccc(-c3ccc(N(C)C)cc3)cc2)C(=O)C2CCCCC2)c1 [fexaramine]	25 nM	–	255
COC(=O)/C=C/c1cccc(N(Cc2ccc(/C=C/c3ccccc3)cc2)C(=O)C2CCCCC2)c1 [fexarene]	36 nM	–	~255
COC(=O)/C=C/c1cccc(N(Cc2ccc(-c3ccc4c(c3)OCO4)cc2)C(=O)C2CCCCC2)c1 [fexarine]	38 nM	–	222

More lines, now with the values ahead:

EC50 (FXR)	recruitment of SRC-1 peptide [1]	EC50 [1] [nM]	SMILES
377 nM	Weaker recruitment	–	COC(=O)/C=C/c1cccc(N(Cc2ccc(-c3ccccc3OC)cc2)C(=O)C(C)C)c1 [SRI-1]
343 nM	Weaker recruitment	–	COC(=O)/C=C/c1cccc(N(Cc2ccc(-c3ccc(C(C)(C)C)cc3)cc2)C(=O)C(C)C)c1 [SRI-2]
